According to patent US20230054976A1, “METHODS FOR INHIBITION OF ALPHA-SYNUCLEIN mRNA USING SMALL MOLECULES” (The Scripps Research Institute, priority 2019, published 2023):
Entries after “also recorded” stand apart in the source; their conditions may differ.

Key:
[1] = system: construct in which the SNCA 5′ UTR was absent; assay: Luciferase reporter assay, construct lacking SNCA 5′ UTR, SH-SY5Y cells; assay type: cell-based, human; details: cellular
From the text: pIRES-Luc-EGFP-puro: The firefly luciferase open reading frame (ORF) was amplified with primers 1 and 2 using pmirGLO-dual-luciferase (Promega, E1330) as a template. The PCR product was then fused with linearized pIRES-EGFP-puro (Addgene plasmid #45567) digested with XhoI and SacI, placing the luciferase ORF upstream of the IRES sequence. pCDH-Luc-EGFP-puro: The firefly luciferase open reading frame (ORF) was amplified with primers 15 and 16 using pmirGLO-dual-luciferase (Promega, E1330) as a template. The PCR product was then fused with linearized pCDH-CB-IRES-copGFP-T2A-Puro digested with BamHI and NotI, placing the luciferase ORF upstream of IRES sequence. Luciferase assay. The effect of Synucleozid treatment on translation from various IRE containing transcripts was determined using luciferase reporter assay. […] Luciferase reporter activity in each lysate was monitored using the dual luciferase reporter assay system kit (Promega. Madison, Wis., USA) according to the manufacturer's instructions. Luminescence from firefly luciferase reaction was measured using a microplate luminometer (Wallac 1420, Perkin Elmer) at 485 nm excitation and 535 nm emission wavelengths. Firefly luciferase reaction was then quenched by adding Stop & Glo reagent, and the internal fluorescence from GFP measured at the same setting was used to normalize luciferase expression. […]

[2] = biological target: unlabeled SNCA IRE RNA (RNA-0); assay: Competitive binding assay (2-AP), RNA-0; details: read-out: competitive Kd; RNA-0, native SNCA IRE
Procedure: I and I0 are the observed fluorescence intensity in the presence and absence of 2-AP RNA. Δε is the difference between the fluorescence intensity in the absence and presence of infinite 2-AP RNA. […] EC50 was calculated from Eq. (1). […] The change of fluorescence intensity was fit to Eq. (2):
θ is the percentage of 2-AP RNA bound. [RNA] is the concentration of 2-AP RNA. EC50 is the EC50 of Synucleozid determined in the assay above. [Synucleozid] is the concentration of Synucleozid. Cc is the concentration of competitive RNA. Kd is competitive dissociation constant and A is a constant.

[3] = biological target: T1, IRP-1:SNCA IRE RNA complex (Homo sapiens, UniProt P21399); assay: In vitro displacement of IRPs by gel mobility shift assay, IRP-1; assay type: binding; details: 0.2, 1, 5 μM; pre-incubation 1-60 min
T1 construct: purchased Abnova
Procedure: In vitro displacement of IRPs by gel mobility shift assays. SNCA IRE hairpin RNA was 5′-end labeled with [γ-^32P]ATP as previously described^5. Approximately, 2 pmoles of ^32P labeled RNA per 20 μL reaction was folded in 1× Assay Buffer by heating at 65° C. for 5 min and slowly cooling to room temperature. As indicated, vehicle, Synucleozid (0.2, 1, 5 μM) or unlabeled IRE RNA (1 μM, folded as described above and used as a positive control) was added to the samples, and the samples were incubated at room temperature for varying amounts of time (1-60 min as indicated). Then, 0.5 μg IRP-1 or IRP-2 (Abnova) was added, and the samples were incubated at room temperature for an additional 30 min. An equal volume of 2× Native Gel Loading Buffer (2×TBE, 50% Glycerol, 0.025% (w/v) Bromophenol blue and Xylene cyanol FF) was added to each sample. Note, Native Gel Loading Buffer added to Synucleozid-treated samples was supplemented with the same concentration of Synucleozid as in the sample to maintain a constant concentration. IRP:IRE complexes and free IRE were separated on a native 15% polyacrylamide prepared 1×TBE supplemented with the same concentration of Synucleozid as in compound-treated samples, and imaged using a Bio-Rad PMI phosphorimager. Images were quantified with BioRad's Quantity One software.

[4] = system: SNCA mRNA; assay: ASO-Bind-Map in cells (gapmer ASO, RT-qPCR); assay type: cell-based, human; details: SH-SY5Y cells, gapmer 200 nM
Procedure: Mapping Synucleozid's binding site in cells with ASO-Bind-Map. SH-SY5Y cells were treated with vehicle (DMSO) or Synucleozid at 60% confluency overnight and were then transfected with a gapmer ASO (200 nM) with Lipofectamine RNAiMAX (Invitrogen) according to the manufacturer's instructions. Mock samples were generated by treating cells with transfection reagent lacking oligonucleotide. RNA extraction, cDNA synthesis and RT-qPCR were performed as described above after 48 h. Primers for SNCA mRNA in this experiment cover sequences upstream and downstream of the IRE; forward primer: [NT]; reverse primer [NT].

[5] = system: APP 5′ UTR; assay: Luciferase reporter assay, APP 5′ UTR, SH-SY5Y cells; assay type: cell-based, human

T1 sequence (P21399 whole entry, species assumed, one chain of several): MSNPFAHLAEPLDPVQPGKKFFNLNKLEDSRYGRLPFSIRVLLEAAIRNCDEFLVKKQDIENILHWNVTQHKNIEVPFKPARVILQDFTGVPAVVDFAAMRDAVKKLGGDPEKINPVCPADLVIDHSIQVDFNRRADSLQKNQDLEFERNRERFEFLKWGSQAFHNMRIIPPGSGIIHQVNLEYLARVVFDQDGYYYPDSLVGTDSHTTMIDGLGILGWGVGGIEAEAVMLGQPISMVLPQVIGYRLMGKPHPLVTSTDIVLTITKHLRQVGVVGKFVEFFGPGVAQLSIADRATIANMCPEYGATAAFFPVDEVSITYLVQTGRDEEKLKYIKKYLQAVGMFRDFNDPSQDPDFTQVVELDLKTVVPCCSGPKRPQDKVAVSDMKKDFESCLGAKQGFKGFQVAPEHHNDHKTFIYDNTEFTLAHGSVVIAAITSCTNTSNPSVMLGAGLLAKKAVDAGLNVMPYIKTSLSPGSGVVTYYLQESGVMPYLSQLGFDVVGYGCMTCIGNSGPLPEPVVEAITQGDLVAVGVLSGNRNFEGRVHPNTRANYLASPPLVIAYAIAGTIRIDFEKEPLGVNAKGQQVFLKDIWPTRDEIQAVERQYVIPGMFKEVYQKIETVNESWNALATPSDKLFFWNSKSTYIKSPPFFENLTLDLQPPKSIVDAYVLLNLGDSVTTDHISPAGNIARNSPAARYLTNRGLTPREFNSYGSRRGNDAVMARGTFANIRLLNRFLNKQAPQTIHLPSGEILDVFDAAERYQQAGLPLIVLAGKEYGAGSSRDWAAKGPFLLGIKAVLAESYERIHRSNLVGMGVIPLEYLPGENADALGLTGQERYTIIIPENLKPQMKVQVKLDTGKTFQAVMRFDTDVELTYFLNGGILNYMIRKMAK

For `N=C(N)c1ccc(Nc2ccc(-c3cc4ccc(C(=N)N)cc4[nH]3)cc2)cc1` [Synucleozid A], the “inhibitory effect on luciferase construct lacking SNCA 5′ UTR” value [1] was “No inhibitory effect”, the Kd [2] was 1500 ± 300 nM and the “effect on binding of IRP-1 to SNCA IRE RNA” value [3] was “Neither Synucleozid concentration (0.2, 1, 5 μM) nor pre-incubation time (1, 5, 15, 60 min) has any significant effect”. For the same compound, the “effect on SNCA mRNA cleavage by ASO(29-39)” value [4] was “no effect; also recorded: Protection is not observed”, the “effect with the control ASO” value [4] was “no effect” and the EC50 ([4]; read-out: EC50 for inhibition of SNCA mRNA cleavage by ASO(1-10)) was 1000 nM. For the same compound, the “effect on translation of luciferase fused to APP 5′ UTR” value [5] was “no effect”.
